Experimental data reported in ChEMBL document CHEMBL1201862, “PubChem BioAssay data set” (2004).
Calls of active or inactive are those of the source.

Columns and labels:
[1] = Luminescence Cell-Based Dose Retest to Confirm Inhibitors of Cancer Stem Cells. [Related pubchem assays (depositor defined):AID2717, AID2721]; format: functional; settings: Homo sapiens
[2] = cytotoxicity in HMLE control line with eGFP shRNA, dose response, counter-screen for HMLE_sh_ECad selective toxicity project, cell-based, HMLE_sh_eGFP, luminescence (AID 463074); format: functional, Homo sapiens;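 further: HMLE human mammary epithelial cells expressing control shRNA against eGFP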
[3] = molecular target: T1, Tyrosine-protein phosphatase non-receptor type 7 (Homo sapiens, UniProt P35236); assay: HePTP (PTPN7) phosphatase inhibitor potency, SAR follow-up, biochemical, set 2 (AID 449736); format: functional
T1 sequence (P35236 whole entry): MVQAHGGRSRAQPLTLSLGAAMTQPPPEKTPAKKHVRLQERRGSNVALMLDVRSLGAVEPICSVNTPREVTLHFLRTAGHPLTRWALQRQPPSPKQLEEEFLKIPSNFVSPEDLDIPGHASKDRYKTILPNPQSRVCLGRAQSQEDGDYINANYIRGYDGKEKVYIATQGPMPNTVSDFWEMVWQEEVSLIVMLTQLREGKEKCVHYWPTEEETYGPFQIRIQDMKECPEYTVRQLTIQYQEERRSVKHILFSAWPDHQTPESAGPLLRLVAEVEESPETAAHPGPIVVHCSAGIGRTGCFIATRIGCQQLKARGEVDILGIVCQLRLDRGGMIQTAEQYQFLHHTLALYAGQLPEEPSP

[4] = molecular target: T2, Dual specificity protein phosphatase 3 (Homo sapiens, UniProt P51452); assay: SAR VHR1 Fluorescent Assay for In Vitro dose response studies Set 2. [Related pubchem assays (depositor defined):AID1654, AID1661, AID1878]; format: functional
T2 sequence (P51452 whole entry): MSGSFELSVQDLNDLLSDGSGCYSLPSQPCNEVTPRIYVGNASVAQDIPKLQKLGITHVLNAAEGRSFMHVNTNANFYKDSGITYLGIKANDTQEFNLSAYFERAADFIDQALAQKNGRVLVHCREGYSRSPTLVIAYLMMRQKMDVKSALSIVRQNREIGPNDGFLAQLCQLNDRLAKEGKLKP

[5] = molecular target: Dual specificity protein phosphatase 6 (Rattus norvegicus, UniProt Q64346); format: functional;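 further: confirmatory in vitro dose-response testing of MKP-3 inhibition; recombinant His-tagged MKP-3 made in E. coli BL21 with OMFP substrate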
Sequence of Dual specificity protein phosphatase 6 (Q64346 whole entry): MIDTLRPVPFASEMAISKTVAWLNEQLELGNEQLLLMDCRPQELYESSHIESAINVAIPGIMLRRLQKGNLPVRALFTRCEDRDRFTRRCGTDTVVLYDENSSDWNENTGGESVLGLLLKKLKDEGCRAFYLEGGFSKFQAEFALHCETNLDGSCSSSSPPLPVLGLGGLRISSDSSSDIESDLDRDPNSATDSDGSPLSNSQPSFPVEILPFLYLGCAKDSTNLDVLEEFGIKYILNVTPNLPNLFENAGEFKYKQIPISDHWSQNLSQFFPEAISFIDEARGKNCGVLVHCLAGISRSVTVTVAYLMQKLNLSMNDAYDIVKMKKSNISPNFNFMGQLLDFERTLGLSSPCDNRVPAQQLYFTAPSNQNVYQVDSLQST

[6] = molecular target: T2, Dual specificity protein phosphatase 3; assay: SAR VHR1 Fluorescent Assay for In Vitro dose response studies. [Related pubchem assays (depositor defined):AID1654, AID1661, AID1878, AID1992, AID2004, AID2070, AID2085]; format: functional
[7] = molecular target: T3, Tyrosine-protein phosphatase non-receptor type 22 (Homo sapiens, UniProt Q9Y2R2); assay: SAR LYP1 Fluorescent Assay using OMFP substrate for In Vitro dose response studies - Set 3. [Related pubchem assays (depositor defined):AID1779, AID1784, AID2140, AID2686]; format: functional
T3 sequence (Q9Y2R2 whole entry): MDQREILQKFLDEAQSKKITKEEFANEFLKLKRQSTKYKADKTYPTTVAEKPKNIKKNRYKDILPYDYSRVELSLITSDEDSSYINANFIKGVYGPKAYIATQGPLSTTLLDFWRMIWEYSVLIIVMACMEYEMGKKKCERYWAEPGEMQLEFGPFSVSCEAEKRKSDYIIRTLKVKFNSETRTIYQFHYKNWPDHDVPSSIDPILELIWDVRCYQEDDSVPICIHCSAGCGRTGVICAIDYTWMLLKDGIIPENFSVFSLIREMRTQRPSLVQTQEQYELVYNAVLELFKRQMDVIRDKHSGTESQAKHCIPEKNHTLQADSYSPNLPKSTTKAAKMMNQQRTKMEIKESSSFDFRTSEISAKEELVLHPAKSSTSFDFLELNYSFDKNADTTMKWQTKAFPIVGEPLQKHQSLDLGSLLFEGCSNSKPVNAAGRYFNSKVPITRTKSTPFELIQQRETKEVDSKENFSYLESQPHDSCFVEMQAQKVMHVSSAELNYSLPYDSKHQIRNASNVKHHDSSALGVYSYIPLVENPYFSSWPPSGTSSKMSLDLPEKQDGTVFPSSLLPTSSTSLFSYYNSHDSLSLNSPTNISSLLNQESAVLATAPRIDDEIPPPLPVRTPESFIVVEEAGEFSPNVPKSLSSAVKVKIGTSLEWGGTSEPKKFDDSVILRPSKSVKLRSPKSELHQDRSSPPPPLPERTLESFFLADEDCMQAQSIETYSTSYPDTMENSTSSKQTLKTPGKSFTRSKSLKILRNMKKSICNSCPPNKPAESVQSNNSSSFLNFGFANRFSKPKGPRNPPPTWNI

[8] = molecular target: T2, Dual specificity protein phosphatase 3; assay: MOA VHR1 Fluorescent secondary assay for identification of redox-state modulating compounds. [Related pubchem assays (depositor defined):AID1654, AID1661, AID1878, AID1957]
[9] = molecular target: T3, Tyrosine-protein phosphatase non-receptor type 22; assay: LYP (PTPN22) phosphatase inhibitor potency, SAR follow-up, biochemical, pCAP fluorogenic substrate, fluorescence, set 3 (AID 449727); format: functional
[10] = molecular target: T1, Tyrosine-protein phosphatase non-receptor type 7; assay: redox-dependent HePTP inhibition, mechanism study, biochemical, fluorescence (AID 2068); format: functional
[11] = molecular target: Tyrosine-protein phosphatase non-receptor type 12 (Homo sapiens, UniProt Q05209); assay: SAR Selectivity Analysis of small molecule inhibitors of PEST using pCAP in a fluorescence assay. [Related pubchem assays (depositor defined):AID1779, AID1784, AID2135]; format: functional
[12] = molecular target: T4, Voltage-gated N-type calcium channel alpha-1B subunit/Amyloid beta A4 precursor protein-binding family A member 1 (Homo sapiens, UniProt Q00975+Q02410); format: protein assay
T4 sequence (Q00975 whole entry): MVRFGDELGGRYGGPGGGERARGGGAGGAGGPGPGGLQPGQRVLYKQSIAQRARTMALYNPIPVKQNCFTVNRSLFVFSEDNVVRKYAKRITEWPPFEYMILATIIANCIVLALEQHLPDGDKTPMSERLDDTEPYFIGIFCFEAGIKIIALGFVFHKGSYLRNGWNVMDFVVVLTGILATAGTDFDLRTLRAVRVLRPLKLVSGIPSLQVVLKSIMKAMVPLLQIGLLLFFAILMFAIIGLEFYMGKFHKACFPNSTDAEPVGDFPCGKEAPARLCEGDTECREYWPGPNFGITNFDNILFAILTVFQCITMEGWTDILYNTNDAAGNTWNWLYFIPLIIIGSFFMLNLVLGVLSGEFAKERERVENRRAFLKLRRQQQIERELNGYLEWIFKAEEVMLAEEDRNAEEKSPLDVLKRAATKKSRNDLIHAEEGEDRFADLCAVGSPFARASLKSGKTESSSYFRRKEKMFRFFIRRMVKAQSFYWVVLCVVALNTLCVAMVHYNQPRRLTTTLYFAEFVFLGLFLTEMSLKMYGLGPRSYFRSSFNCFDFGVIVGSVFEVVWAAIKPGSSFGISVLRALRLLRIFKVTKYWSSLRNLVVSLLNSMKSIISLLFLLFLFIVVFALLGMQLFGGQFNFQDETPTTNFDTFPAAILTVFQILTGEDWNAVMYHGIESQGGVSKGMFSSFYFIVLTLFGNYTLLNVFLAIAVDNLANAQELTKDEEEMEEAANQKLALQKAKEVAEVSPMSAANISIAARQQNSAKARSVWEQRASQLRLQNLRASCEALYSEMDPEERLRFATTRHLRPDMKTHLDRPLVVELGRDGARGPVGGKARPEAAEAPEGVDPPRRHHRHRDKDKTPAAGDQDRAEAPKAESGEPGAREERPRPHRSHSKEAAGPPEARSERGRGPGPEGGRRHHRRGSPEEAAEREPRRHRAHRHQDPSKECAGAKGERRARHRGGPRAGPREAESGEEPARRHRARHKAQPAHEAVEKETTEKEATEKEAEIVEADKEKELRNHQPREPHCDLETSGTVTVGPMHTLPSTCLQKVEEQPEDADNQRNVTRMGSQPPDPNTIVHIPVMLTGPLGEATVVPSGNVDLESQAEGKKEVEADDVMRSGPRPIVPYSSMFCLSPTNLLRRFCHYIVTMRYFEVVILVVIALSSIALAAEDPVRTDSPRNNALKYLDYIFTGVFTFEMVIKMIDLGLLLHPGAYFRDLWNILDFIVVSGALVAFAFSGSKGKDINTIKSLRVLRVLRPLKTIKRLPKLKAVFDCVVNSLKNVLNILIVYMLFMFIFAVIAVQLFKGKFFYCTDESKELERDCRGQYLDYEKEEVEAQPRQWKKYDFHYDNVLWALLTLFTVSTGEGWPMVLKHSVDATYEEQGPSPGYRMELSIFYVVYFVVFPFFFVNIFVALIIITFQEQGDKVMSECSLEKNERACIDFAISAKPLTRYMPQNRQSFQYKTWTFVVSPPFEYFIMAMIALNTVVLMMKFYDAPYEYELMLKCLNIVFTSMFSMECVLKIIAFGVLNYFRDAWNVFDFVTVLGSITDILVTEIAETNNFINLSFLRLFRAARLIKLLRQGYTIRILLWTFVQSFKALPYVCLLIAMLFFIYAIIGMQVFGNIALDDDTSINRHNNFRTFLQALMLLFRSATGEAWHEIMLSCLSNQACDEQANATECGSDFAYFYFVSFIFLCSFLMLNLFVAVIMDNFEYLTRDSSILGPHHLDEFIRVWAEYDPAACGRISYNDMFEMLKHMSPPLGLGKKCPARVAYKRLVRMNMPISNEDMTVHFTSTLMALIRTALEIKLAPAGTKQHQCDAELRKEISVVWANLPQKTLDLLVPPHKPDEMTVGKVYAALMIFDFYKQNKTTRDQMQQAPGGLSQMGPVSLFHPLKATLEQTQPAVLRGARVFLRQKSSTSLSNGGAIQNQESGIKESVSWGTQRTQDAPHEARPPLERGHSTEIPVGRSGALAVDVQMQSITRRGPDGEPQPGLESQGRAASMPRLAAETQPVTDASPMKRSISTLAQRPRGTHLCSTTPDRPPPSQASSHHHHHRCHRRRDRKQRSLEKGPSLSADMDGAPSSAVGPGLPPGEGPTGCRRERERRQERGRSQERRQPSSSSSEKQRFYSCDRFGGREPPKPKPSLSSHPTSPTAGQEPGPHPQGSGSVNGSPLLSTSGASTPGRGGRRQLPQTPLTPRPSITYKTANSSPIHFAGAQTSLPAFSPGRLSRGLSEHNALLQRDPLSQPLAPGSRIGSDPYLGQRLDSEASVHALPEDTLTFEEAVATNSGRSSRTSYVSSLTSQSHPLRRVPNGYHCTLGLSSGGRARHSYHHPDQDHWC
T4 sequence (Q02410 whole entry): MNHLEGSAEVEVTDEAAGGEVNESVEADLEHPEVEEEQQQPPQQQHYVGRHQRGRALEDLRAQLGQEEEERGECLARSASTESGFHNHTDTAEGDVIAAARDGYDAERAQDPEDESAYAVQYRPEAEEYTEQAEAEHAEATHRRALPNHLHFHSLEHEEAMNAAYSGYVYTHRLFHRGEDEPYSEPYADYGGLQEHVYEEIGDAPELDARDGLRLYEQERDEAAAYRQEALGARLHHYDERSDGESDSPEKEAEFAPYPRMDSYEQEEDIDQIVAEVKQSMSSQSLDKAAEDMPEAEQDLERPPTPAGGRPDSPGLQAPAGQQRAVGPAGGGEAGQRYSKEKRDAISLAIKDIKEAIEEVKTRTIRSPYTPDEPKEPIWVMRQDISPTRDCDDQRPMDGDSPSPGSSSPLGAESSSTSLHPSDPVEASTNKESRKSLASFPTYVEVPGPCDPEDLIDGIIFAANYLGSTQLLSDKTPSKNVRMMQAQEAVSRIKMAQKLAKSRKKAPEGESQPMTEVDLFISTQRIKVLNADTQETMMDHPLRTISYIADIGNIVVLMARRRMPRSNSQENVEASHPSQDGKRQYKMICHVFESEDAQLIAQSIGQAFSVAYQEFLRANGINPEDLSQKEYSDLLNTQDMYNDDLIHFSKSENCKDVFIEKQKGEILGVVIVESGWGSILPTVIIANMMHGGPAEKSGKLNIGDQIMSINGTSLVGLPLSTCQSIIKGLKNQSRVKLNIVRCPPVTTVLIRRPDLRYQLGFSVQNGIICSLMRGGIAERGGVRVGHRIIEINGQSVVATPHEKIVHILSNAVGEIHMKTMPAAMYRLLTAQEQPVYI

[13] = molecular target: Beta-lactamase (Pseudomonas aeruginosa, UniProt Q79MP6);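 further: biochemical dose-response test of metallo-beta-lactamase enzyme inhibition, read out by epi-absorbance; purified recombinant IMP-1 metallo-beta-lactamase with nitrocefin as substrate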
[14] = molecular target: UDP-galactopyranose mutase (Mycobacterium tuberculosis, UniProt P9WIQ1); assay: Inhibitors of Mycobacterium tuberculosis UDP-galactopyranose mutase (UGM) enzyme Measured in Biochemical System Using Plate Reader - 2105-02_Inhibitor_Dose_CherryPick_Activity. [Related pubchem assays (depositor defined):AID504439]
[15] = molecular target: T4, Voltage-gated N-type calcium channel alpha-1B subunit/Amyloid beta A4 precursor protein-binding family A member 1; format: protein assay; remark: listed apart in the source
[16] = molecular target: Keap1/Nrf2 (Homo sapiens, UniProt Q14145); assay: Keap1-Nrf2 protein-protein interaction inhibitors, dose response, biochemical, fluorescence polarization, cherry-picked samples (AID 588683)
[17] = molecular target: Beta-lactamase (Salmonella choleraesuis (strain SC-B67), UniProt Q5J463)
[18] = molecular target: T5, ORF 73 (Human herpesvirus 8, UniProt O40947); assay: inhibitors of C-LANA binding to LBS DNA, dose response, biochemical, fluorescence polarization, cherry-picked samples (AID 504725); parameters: species or system Human gammaherpesvirus 8;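 further: fluorescence polarization of a labeled DNA duplex reporting LANA DNA binding; potency is for inhibitors that block LANA binding to the DNA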
T5 sequence (O40947 whole entry): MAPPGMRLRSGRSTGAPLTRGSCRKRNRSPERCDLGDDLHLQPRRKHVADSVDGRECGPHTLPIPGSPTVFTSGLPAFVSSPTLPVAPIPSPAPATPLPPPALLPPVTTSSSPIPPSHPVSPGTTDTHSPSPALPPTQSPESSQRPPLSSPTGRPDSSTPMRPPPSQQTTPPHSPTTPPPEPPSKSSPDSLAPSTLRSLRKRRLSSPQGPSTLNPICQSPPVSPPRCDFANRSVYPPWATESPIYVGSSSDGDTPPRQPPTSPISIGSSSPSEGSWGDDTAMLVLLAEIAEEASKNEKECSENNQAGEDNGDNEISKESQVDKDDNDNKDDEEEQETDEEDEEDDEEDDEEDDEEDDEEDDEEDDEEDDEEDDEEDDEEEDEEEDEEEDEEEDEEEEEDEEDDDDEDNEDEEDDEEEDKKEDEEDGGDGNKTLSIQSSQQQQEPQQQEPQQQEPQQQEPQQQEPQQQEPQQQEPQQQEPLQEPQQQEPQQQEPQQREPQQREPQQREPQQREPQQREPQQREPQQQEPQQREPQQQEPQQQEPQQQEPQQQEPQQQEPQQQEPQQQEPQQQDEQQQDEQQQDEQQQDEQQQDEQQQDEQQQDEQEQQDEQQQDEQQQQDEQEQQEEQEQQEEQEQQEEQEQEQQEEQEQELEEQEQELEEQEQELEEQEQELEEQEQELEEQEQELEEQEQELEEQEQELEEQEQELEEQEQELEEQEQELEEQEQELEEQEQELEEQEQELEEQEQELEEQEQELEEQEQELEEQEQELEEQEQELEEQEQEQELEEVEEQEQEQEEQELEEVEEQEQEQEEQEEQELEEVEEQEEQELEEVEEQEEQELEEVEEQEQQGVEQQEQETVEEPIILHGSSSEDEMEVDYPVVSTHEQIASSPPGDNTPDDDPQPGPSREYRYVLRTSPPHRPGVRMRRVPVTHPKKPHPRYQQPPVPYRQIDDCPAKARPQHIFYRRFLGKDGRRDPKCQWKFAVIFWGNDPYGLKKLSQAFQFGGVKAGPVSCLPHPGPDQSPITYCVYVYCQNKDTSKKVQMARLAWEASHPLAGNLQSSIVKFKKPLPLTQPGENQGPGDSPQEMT

[19] = molecular target: Voltage-gated inwardly rectifying potassium channel KCNH2 (Homo sapiens, UniProt Q12809); settings: Potency;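 further: confirmatory quantitative high-throughput screen measuring inhibition of hERG channel activity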
Sequence of Voltage-gated inwardly rectifying potassium channel KCNH2 (Q12809 whole entry): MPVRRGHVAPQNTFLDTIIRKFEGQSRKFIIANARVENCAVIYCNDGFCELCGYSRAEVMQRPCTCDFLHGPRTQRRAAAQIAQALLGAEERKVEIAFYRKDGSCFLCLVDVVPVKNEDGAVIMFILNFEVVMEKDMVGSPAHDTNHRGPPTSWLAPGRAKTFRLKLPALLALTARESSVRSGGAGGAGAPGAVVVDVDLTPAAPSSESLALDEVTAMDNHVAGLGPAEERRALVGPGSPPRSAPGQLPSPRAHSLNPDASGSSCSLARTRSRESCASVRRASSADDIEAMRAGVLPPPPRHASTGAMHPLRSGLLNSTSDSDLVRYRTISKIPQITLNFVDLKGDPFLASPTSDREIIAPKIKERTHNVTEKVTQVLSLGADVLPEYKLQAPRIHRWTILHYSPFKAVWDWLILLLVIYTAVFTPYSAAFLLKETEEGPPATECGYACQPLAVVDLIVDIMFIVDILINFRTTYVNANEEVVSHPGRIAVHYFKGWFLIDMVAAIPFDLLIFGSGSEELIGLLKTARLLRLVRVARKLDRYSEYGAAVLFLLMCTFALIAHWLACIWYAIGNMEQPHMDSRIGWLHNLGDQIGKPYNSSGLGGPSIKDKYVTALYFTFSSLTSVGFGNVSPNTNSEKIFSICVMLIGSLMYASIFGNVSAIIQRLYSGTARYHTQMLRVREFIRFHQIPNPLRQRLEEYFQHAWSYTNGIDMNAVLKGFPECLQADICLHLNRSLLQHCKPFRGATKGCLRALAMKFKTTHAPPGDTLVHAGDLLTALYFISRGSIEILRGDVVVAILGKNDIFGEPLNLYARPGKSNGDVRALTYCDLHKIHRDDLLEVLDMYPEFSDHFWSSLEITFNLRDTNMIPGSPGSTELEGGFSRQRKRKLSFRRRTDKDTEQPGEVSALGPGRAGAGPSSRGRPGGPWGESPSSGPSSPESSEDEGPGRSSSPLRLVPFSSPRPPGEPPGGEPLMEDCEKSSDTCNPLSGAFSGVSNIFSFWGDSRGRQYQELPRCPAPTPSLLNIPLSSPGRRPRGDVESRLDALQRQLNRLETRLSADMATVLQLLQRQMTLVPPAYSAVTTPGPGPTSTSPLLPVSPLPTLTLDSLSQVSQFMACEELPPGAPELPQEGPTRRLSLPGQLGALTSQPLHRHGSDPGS

[20] = molecular target: T6, Cytochrome P450 1A2 (Homo sapiens, UniProt P05177);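 further: PubChem cytochrome P450 panel assay, CYP1A2 panel member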
T6 sequence (P05177 whole entry): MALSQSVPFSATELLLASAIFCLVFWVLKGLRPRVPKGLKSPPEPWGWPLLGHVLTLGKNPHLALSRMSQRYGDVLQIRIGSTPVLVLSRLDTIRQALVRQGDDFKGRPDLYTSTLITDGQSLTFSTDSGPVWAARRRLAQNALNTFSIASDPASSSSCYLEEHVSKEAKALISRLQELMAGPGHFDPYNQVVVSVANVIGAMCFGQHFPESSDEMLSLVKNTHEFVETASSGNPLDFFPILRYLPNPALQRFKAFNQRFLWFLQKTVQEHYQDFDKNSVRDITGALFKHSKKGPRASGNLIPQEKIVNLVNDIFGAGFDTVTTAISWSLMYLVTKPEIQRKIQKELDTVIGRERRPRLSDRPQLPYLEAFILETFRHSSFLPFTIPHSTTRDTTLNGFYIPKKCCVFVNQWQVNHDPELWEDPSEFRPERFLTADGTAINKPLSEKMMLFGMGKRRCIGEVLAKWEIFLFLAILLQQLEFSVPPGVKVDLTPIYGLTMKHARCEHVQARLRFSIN

[21] = molecular target: Cytochrome P450 2C19 (Homo sapiens, UniProt P33261); assay: Cytochrome panel assay with activity outcomes. Panel member name: p450-cyp2c19 Compounds with AC50 equal or less than 10 uM are considered active; format: functional; settings: read-out: AC50
[22] = molecular target: Cytochrome P450 2C9 (Homo sapiens, UniProt P11712)
[23] = cytotoxicity in HEK-293T NF-kB-Luc cells, dose response, cytotoxicity control for B/T-cell NF-kB inhibitor project, cell-based, uHTS hits (AID 489019); format: functional;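 further: IC50 reflects cytotoxicity as loss of cell viability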
[24] = molecular target: Beta-galactosidase (Escherichia coli, UniProt Q8VNN2); assay: PubChem AID 485352; format: functional
[25] = test system: Jurkat; assay: antigen receptor-induced NF-kB inhibitors, dose response, Jurkat, luciferase reporter, luminescence, B- and T-cell (AID 489004); format: functional, cell-based; settings: Homo sapiens;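 further: NF-kB luciferase reporter Jurkat cells stimulated with PMA plus ionomycin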
[26] = molecular target: T7, Type-1 angiotensin II receptor (Homo sapiens, UniProt P30556); assay: AT1 receptor antagonists, dose response, selectivity assay for APJ receptor antagonist project, cell-based, uHTS hits (AID 463214); format: functional;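 further: antagonist potency against angiotensin II stimulated AT1 response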
T7 sequence (P30556 whole entry): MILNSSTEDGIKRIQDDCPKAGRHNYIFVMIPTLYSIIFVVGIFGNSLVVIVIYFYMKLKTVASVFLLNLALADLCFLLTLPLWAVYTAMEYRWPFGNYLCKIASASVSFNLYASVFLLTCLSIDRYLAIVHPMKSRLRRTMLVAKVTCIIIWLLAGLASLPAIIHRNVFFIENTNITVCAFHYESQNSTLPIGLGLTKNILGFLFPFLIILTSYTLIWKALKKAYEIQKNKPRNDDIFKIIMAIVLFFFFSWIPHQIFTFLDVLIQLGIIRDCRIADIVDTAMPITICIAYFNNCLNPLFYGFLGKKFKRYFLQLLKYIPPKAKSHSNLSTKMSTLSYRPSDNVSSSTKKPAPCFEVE

[27] = Shn3 3'UTR reporter inhibitors, dose response, cell-based, Clone20 osteoblasts, firefly luciferase, cherry-picked (AID 624132); format: functional;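 further: firefly luciferase luminescence from reporter carrying the Shn3 3'UTR in osteoblasts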
[28] = control 3'UTR Renilla luciferase suppression, dose response, counter-screen for Shn3 inhibitor project, cell-based, Clone20-Shn3RL, cherry-picked (AID 624133); format: functional
[29] = HepG2 cell cytotoxicity, dose response, cytotoxicity control for Shn3 inhibitor project, CellTiter-Glo, cherry-picked (AID 624134); format: functional, cell-based
[30] = growth induction of Burl-1 ts yeast mutant, dose response, counter-screen for SUMOylation pathway inhibitor project, whole organism, S. cerevisiae, luminescence (AID 463199); format: functional

Cc1ccc(Nc2nc(N)nc(CSC(=S)N3CCN(c4ccccc4)CC3)n2)cc1
AC50 [1]: 13.4 µM (active)
AC50 [2]: 31.4 µM (active)

CCOC(=O)C1=C(C)N=c2s/c(=C\c3cc(Cl)c(OCC(=O)O)c(Cl)c3)c(=O)n2C1c1cccc(OC)c1 (stereo not given)
IC50 [3]: 1.22 µM (active)
IC50 [4]: 31.9 µM (active)
IC50 [5]: 49.7 µM (active)
IC50 [6]: 13.4 µM (active)
IC50 [7]: 44.6 µM (active)
IC50 [8]: 2.76 µM (active)
IC50 [9]: 34.1 µM (active)
IC50 [10]: 1.95 µM (active)
IC50 [11]: 7.99 µM (active)

CCCCn1c(=O)[nH]c2nc3cc(N)ccc3nc2c1=O
IC50 [12]: 19.1 µM (active)
IC50 [13]: 20.7 µM (inactive)
AC50 [14]: 2.42 µM (active)
IC50 [15]: > 50 µM (inactive)
AC50 [16]: 3.52 µM (active)
IC50 [17]: 7.87 µM (active)
AC50 [18]: 2.4 µM (active)

COc1cc([C@@H]2c3cc4c(cc3[C@H](O)C3COC(=O)[C@@H]32)OCO4)cc(OC)c1OC (stereo not given in full)
AC50 [19]: 0.501 µM (inconclusive)

CCOC(=O)N1CCN(Cc2nc3c(c(=O)[nH]c(=O)n3C)n2Cc2ccccc2C)CC1
AC50 [20]: inconclusive
AC50 [21]: 20 µM (inconclusive)
AC50 [22]: 35.5 µM (inconclusive)

O=C1/C(=C/c2ccccc2)C[C@@]2(O)[C@H]3Cc4ccc(O)c5c4[C@@]2(CCN3CC2CC2)C1O5 (stereo not given in full)
IC50 [23]: > 80 µM (inactive)
EC50 [24]: > 40 µM (inactive)
IC50 [25]: 4.22 µM (active)
IC50 [26]: 14 µM (active)
AC50 [27]: 4.64 µM (active)
AC50 [28]: 7.78 µM (active)
AC50 [29]: 8.88 µM (active)

CCC1SC2=NC(C)=C(C(=O)OCCOC)C(c3ccc(C(=O)OC)cc3)N2C1=O (stereo not given)
AC50 [30]: 50.8 µM (active)
